{
  "source": "patent US9180115B2",
  "about": "“Cyclohexylamines” (Asana Biosciences, LLC, priority 2011, dated 2015)",
  "key": {"[1]": {"test_system": "sodium channel response in hTRPV1-N1E115 cells", "assay": "FLIPR membrane potential assay of sodium channel response in hTRPV1-N1E115 cells with or without heat (47° C.) activation", "format": "cell-based", "settings": "for hTRPV1-N1E Nav 0.1 mM (% inhibition) 25° C. / hTRPV1-N1E Nav 1 mM (% inhibition) 25° C.: 25° C. (no heat activation); for hTRPV1-N1E Nav 0.1 mM (% inhibition) 47° C. / hTRPV1-N1E Nav 1 mM (% inhibition) 47° C.: 47° C. (heat activated); for IC50: 47° C., read-out: hTRPV1-N1E IC50 (μM) 47° C.", "how_it_was_run": "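hTRPV1-N1E115 cells loaded with FMP membrane-potential dye; compound added, then one duplicate plate heated at 47° C. for 10 min plus 30 min at room temperature, the other kept at room temperature 40 min. Depolarization by veratridine 100 μM final, with ATX-II 3 μM final; inhibition of the fluorescence signal scored.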"}, "[2]": {"biological_target": "T1, human Nav1.5 sodium channel (Homo sapiens, UniProt Q14524)", "T1 construct": "host or cells: HEK-293", "T1 sequence (Q14524 whole entry, canonical isoform)": "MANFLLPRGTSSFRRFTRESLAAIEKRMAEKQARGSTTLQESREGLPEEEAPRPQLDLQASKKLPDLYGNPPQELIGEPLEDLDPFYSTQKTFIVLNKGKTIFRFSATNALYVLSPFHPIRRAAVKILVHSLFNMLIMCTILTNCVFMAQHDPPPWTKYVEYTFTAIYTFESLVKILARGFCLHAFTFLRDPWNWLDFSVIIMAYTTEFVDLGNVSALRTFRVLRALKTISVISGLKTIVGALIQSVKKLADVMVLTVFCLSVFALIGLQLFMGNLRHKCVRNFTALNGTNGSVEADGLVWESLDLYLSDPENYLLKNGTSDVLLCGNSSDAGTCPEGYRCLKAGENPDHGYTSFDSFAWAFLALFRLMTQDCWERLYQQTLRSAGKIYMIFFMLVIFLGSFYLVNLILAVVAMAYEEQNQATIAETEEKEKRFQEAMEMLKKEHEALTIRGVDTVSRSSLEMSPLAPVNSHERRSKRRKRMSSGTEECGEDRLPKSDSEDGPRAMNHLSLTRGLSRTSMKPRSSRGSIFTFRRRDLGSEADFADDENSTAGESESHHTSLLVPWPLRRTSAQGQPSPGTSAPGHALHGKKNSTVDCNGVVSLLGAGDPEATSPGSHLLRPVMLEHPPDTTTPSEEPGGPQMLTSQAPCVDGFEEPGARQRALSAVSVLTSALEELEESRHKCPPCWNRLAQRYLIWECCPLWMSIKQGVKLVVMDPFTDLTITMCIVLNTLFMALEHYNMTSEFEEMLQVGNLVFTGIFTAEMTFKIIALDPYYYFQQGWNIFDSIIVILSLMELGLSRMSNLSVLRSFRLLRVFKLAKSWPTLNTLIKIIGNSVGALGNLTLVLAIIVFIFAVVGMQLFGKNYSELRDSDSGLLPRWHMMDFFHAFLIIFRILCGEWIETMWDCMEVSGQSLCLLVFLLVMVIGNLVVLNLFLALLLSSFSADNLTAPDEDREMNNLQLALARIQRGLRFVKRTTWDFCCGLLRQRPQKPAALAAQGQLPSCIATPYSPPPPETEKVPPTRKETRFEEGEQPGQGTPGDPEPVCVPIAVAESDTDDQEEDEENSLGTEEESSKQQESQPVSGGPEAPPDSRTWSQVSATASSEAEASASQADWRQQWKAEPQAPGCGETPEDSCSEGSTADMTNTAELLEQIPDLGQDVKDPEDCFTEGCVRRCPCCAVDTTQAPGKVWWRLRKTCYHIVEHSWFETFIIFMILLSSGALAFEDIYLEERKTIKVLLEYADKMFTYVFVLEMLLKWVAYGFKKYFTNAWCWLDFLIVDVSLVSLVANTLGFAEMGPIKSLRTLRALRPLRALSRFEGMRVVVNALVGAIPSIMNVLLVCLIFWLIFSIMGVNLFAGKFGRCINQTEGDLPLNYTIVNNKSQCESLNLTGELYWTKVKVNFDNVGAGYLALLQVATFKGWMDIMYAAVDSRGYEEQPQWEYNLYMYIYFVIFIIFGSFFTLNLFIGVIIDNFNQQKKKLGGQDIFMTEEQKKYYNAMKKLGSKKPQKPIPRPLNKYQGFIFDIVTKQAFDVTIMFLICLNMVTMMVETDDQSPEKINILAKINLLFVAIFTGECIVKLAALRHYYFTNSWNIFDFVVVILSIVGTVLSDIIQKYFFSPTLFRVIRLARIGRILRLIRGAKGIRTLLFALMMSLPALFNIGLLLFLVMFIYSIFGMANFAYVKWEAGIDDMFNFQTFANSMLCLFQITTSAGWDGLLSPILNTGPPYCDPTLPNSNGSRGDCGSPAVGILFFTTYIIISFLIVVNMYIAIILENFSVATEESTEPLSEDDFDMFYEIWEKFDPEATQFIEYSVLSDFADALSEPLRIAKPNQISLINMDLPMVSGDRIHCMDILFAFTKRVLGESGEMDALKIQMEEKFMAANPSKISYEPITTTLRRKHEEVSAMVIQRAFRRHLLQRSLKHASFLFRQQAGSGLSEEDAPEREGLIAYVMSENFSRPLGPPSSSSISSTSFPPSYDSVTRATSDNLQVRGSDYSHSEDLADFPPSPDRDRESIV", "assay": "FLIPR membrane potential assay in hNav1.5-HEK293 cells", "format": "cell-based", "protocol": "C. Method for Assessing the Extent of Inhibition of Sodium Channel Response with Compounds in hNav1.5-HEK293 Cells.\nThe following assay was used to assess the tendency of the test compounds to block the dominant cardiac sodium channel isoform. Nav1.5 sodium channels are known to be permeable to quaternary sodium channel blockers such as QX-314 and, thus, the assay was performed in the absence of a chemical TRPV1 agonist.\nThe hNav1.5-HEK-293 cells (CreaCell, France, a human embryonic kidney cell line expressing the human Nav1.5 sodium channel) were cultured in Growth medium (containing 1×DMEM (Gibco)+10% FBS (PAA Gold)+2% glutamine 100 mM (Gibco)+1% penicillin 10,000 U/mL streptomycin 10,000 μg/mL (Invitrogen)+1.2 mg/mL Geneticin® G418 (Invitrogen)) in 75 mL cell bind flasks (Corning). The following steps were followed exactly as mentioned. The spent medium was discarded and the cells rinsed once with PBS-1×. Accutase® (1-2 mL; PAA) solution was added. The plate was placed on a 37° C. warming incubator 3-5 minutes. As soon as cells are detached, 37° C. complete medium (9 mL) was added. The cell suspension is drawn into a sterile pipette and cells homogenized gently to dissociate cell aggregates. The cells were counted using a hemocytometer with Blue Trypan and then centrifuged 5 minutes at 400 g. The cells can be amplified or maintained by seeding […] in a T75 flask (final volume: 15 mL). 8000 cells in 50 μL Growth medium was added to each well of 384-well, clear bottomed, sterile poly-D-lysine coated plates with lid (Greiner-bio one) inside the laminar air-flow. The plates were incubated at 37° C. and 5% CO2 in a CO2 incubator (Thermo) for 48 hours.\nOn the day of the assay, cells were washed with Assay buffer, which was prepared using the components and amounts in the following Table 5. pH was adjusted to 7.4 with NaOH, volume made up to 500 mL with Milli-Q® water.\nAssay Buffer was added to the cells and incubated at rt (25° C.) for 10 minutes. The compounds were diluted in assay buffer. The compounds were added and incubated at rt (25° C.) for 10 minutes. Red FMP Dye (MDC) was added to the cells and the plate was incubated at rt (25° C.) for 30 minutes. Veratridine stock (20 mM; Sigma) was prepared in DMSO; veratridine (final concentration of 30 μM) in assay buffer was added to each well of the cell seeded plates in the FLIPR and read taken for 10 minutes. The following table provides data illustrating the sodium channel activity of the test compounds in response to the presence or absence of heat stimulation in cells expressing hTRPV1. The compounds were tested for differential activity at 25° C. and 47° C. and at two test concentrations."}, "[3]": {"test_system": "Male Sprague Dawley (SD) rats", "assay": "In vivo assay of mechanical nociception (rat pinch model, perisciatic injection)", "settings": "for Average Time of Analgesia: lidocaine 2%"}, "[4]": {"test_system": "isolated detrusor muscle", "assay": "In vitro assay for effect of compounds on bladder detrusor muscle (EFS-induced contractions)", "set-up": "species or system guinea-pigs", "settings": "cumulative concentration-response"}, "[5]": {"test_system": "sodium current in DRG neurons", "settings": "co-applied with 1 μM capsaicin, whole-cell voltage clamp; read-out: in vitro apparent affinity (IC50) for blocking sodium current in DRG neurons; cited from earlier work"}, "[6]": {"settings": "read-out: HEK Nav 1.5 IC50 (μM) (AVG)"}, "[7]": {"settings": "test compound 0.5%, injection 200 μL"}},
  "note": "Read-outs that look alike come from different tables or passages of the source.",
  "data": [
    {"molecule": "Cc1cc(C)c(C(=O)OC(C)C[N+](C)(C)C2CCCCC2)c(C)c1.[I-]", "note": "(centres unmarked) [Example 1, N,N-dimethyl-N-[2-((2,4,6-trimethylbenzoyl)oxy)propyl]cyclohexanaminium iodide]", "values": [
      {"measurement": "hTRPV1-N1E Nav 0.1 mM (% inhibition) 25° C.", "setting": "[1]", "value": "13 (N = 4) %"},
      {"measurement": "hTRPV1-N1E Nav 0.1 mM (% inhibition) 47° C.", "setting": "[1]", "value": "73 (N = 4) %"},
      {"measurement": "hTRPV1-N1E Nav 1 mM (% inhibition) 25° C.", "setting": "[1]", "value": "53 (N = 4) %"},
      {"measurement": "hTRPV1-N1E Nav 1 mM (% inhibition) 47° C.", "setting": "[1]", "value": "92 (N = 4) %"},
      {"measurement": "IC50", "setting": "[1]", "value": "10 to 100", "unit": "µM"},
      {"measurement": "IC50", "setting": "[2]; [6]", "value": 240, "unit": "µM"},
      {"measurement": "Average Time of Analgesia", "setting": "[3]; test compound 0.5%, injection 100 μL", "value": 7, "unit": "h"}
    ]},
    {"molecule": "CCN(CC)CC(=O)Nc1c(C)cccc1C", "note": "[lidocaine]", "values": [
      {"measurement": "EFS-induced detrusor contractions", "setting": "[4]", "value": "concentration-dependent inhibitions of EFS-induced detrusor contractions"}
    ]},
    {"molecule": "CC(C[N+](C)(C)C1CCCCC1)OC(=O)c1ccccc1C(C)C.[I-]", "note": "(centres unmarked) [Example 2, N-[2-((2-isopropylbenzoyl)oxy)propyl]-N,N-dimethylcyclohexanaminium iodide]", "values": [
      {"measurement": "hTRPV1-N1E Nav 0.1 mM (% inhibition) 25° C.", "setting": "[1]", "value": "23 (N = 4) %"},
      {"measurement": "hTRPV1-N1E Nav 0.1 mM (% inhibition) 47° C.", "setting": "[1]", "value": "77 (N = 4) %"},
      {"measurement": "hTRPV1-N1E Nav 1 mM (% inhibition) 25° C.", "setting": "[1]", "value": "78 (N = 4) %"},
      {"measurement": "hTRPV1-N1E Nav 1 mM (% inhibition) 47° C.", "setting": "[1]", "value": "89 (N = 4) %"},
      {"measurement": "IC50", "setting": "[1]", "value": "10 to 100", "unit": "µM"},
      {"measurement": "IC50", "setting": "[2]; [6]", "value": 188, "unit": "µM"},
      {"measurement": "Average Time of Analgesia", "setting": "[3]; [7]", "value": 12, "unit": "h"}
    ]},
    {"molecule": "C[C@H](C[N+](C)(C)C1CCCCC1)OC(=O)c1ccc(C(C)(C)C)cc1.[I-]", "note": "[Example 47, (R)-N-[2-((4-(tert-butyl)benzoyl)oxy)propyl]-N,N-dimethylcyclo-hexanaminium iodide]", "values": [
      {"measurement": "hTRPV1-N1E Nav 0.1 mM (% inhibition) 25° C.", "setting": "[1]", "value": "54 (N = 4) %"},
      {"measurement": "IC50", "setting": "[1]", "value": "10 to 100", "unit": "µM"},
      {"measurement": "IC50", "setting": "[2]; HEK Nav 1.5 IC50 (μM) (AVG)", "value": 255, "unit": "µM"},
      {"measurement": "Average Time of Analgesia", "setting": "[3]; [7]", "value": 24, "unit": "h"}
    ]},
    {"molecule": "CC(C[N+](C)(C)C1CCCCC1)OC(=O)c1ccc(C(C)(C)C)cc1.[I-]", "note": "(centres unmarked) [Example 12, N-[2-((4-(tert-Butyl)benzoyl)oxy)propyl]-N,N-dimethyl-cyclohexanaminium iodide]", "values": [
      {"measurement": "hTRPV1-N1E Nav 0.1 mM (% inhibition) 25° C.", "setting": "[1]", "value": "25 (N = 4) %"},
      {"measurement": "hTRPV1-N1E Nav 0.1 mM (% inhibition) 47° C.", "setting": "[1]", "value": "84 (N = 4) %"},
      {"measurement": "hTRPV1-N1E Nav 1 mM (% inhibition) 25° C.", "setting": "[1]", "value": "17 (N = 4) %"},
      {"measurement": "hTRPV1-N1E Nav 1 mM (% inhibition) 47° C.", "setting": "[1]", "value": "88 (N = 4) %"},
      {"measurement": "IC50", "setting": "[1]", "value": "10 to 100", "unit": "µM"},
      {"measurement": "IC50", "setting": "[2]; HEK Nav 1.5 IC50 (μM) (AVG)", "value": 134, "unit": "µM"},
      {"measurement": "Average Time of Analgesia", "setting": "[3]; [7]", "value": 0.5, "unit": "h"}
    ]},
    {"molecule": "C[C@@H](C[N+](C)(C)C1CCCCC1)OC(=O)c1ccc(C(C)(C)C)cc1.[I-]", "note": "[Example 46, (S)-N-[2-((4-(tert-butyl)benzoyl)oxy)propyl]-N,N-dimethylcyclo-hexanaminium iodide]", "values": [
      {"measurement": "hTRPV1-N1E Nav 0.1 mM (% inhibition) 25° C.", "setting": "[1]", "value": "40 (N = 4) %"},
      {"measurement": "IC50", "setting": "[2]; HEK Nav 1.5 IC50 (μM) (AVG)", "value": 232, "unit": "µM"},
      {"measurement": "Average Time of Analgesia", "setting": "[3]; [7]", "value": 24, "unit": "h"}
    ]},
    {"molecule": "C[C@@H](C[N+](C)(C)C1CCCCC1)OC(=O)c1ccc(C(C)(C)C)cc1.[Br-]", "note": "[Example 5, (S)—N-[2-((4-(tert-butyl)benzoyl)oxy)propyl]-N,N-dimethylcyclohexanaminium bromide]", "values": [
      {"measurement": "hTRPV1-N1E Nav 0.1 mM (% inhibition) 25° C.", "setting": "[1]", "value": "45 (N = 4) %"},
      {"measurement": "IC50", "setting": "[1]", "value": "10 to 100", "unit": "µM"},
      {"measurement": "IC50", "setting": "[2]; HEK Nav 1.5 IC50 (μM) (AVG)", "value": 305, "unit": "µM"},
      {"measurement": "paw withdrawal vocalization force", "setting": "[3]; 0.45% solution with 2% lidocaine, FIG. 1", "value": "remained at cut-off for the duration of the experiment"},
      {"measurement": "Average Time of Analgesia", "setting": "[3]; test compound 0.2%, injection 200 μL", "value": 2, "unit": "h"},
      {"measurement": "Average Time of Analgesia", "setting": "[3]; test compound 0.3%, injection 200 μL", "value": 24, "unit": "h"},
      {"measurement": "Average Time of Analgesia", "setting": "[3]; test compound 0.4%, injection 200 μL", "value": 44, "unit": "h"},
      {"measurement": "Average Time of Analgesia", "setting": "[3]; test compound 0.45%, injection 200 μL", "value": ">64", "unit": "h"}
    ]},
    {"molecule": "CC[N+](CC)(CC)CC(=O)Nc1c(C)cccc1C", "note": "[QX-314]", "values": [
      {"measurement": "IC50", "setting": "[5]", "value": 30, "unit": "µM"}
    ]}
  ]
}
